# Measurements: patent publication US20100267561A1, “HERBICIDAL PYRIDAZINONE DERIVATIVES” (priority 2007, published 2010)
# Experiments:
# Assay in all cases: Test A pre-/postemergence plant response
# Assay type in all cases: in vivo
# [1] = system: barnyardgrass (Echinochloa crus-galli)
# Text: (§1) Seeds of species selected from barnyardgrass (Echinochloa crus-galli), large crabgrass (Digitaria sanguinalis), giant foxtail (Setaria faberi), blackgrass (Alopecurus myosuroides), canarygrass (Phalaris minor), morningglory (Ipomoea coccinea), pigweed (Amaranthus retroflexus), velvetleaf (Abutilon theophrasti), wheat (Triticum aestivum), and corn (Zea mays) were planted into a blend of loam soil and sand and treated preemergence with a directed soil spray using test chemicals formulated in a non-phytotoxic solvent mixture which included a surfactant. At the same time these species were also treated with postemergence applications of test chemicals formulated in the same manner.
# (§2) Plants ranged in height from 2 to 10 cm and were in the one- to two-leaf stage for the postemergence treatment. Treated plants and untreated controls were maintained in a greenhouse for approximately 10 days, after which time all treated plants were compared to untreated controls and visually evaluated for injury. Plant response ratings, summarized in Table A, are based on a 0 to 100 scale where 0 is no effect and 100 is complete control. A dash (-) response means no test results.
# corn (Zea mays) = system: corn (Zea mays)
# Text: as §1, §2
# [2] = system: giant foxtail (Setaria faberi)
# Text: as §1, §2
# [3] = system: large crabgrass (Digitaria sanguinalis)
# Text: as §1, §2
# [4] = system: morningglory (Ipomoea coccinea)
# Text: as §1, §2
# [5] = system: pigweed (Amaranthus retroflexus)
# Text: as §1, §2
# [6] = system: velvetleaf (Abutilon theophrasti)
# Text: as §1, §2
# [7] = system: wheat (Triticum aestivum)
# Text: as §1, §2
# [8] = Postemergence, 62 g ai/ha, 0 to 100 scale, 0 no effect, 100 complete control
# [9] = Postemergence, 250 g ai/ha, 0 to 100 scale, 0 no effect, 100 complete control
# [10] = Preemergence, 62 g ai/ha, 0 to 100 scale, 0 no effect, 100 complete control
# [11] = Preemergence, 250 g ai/ha, 0 to 100 scale (0 no effect, 100 complete control)
# [12] = Postemergence, 125 g ai/ha, 0 to 100 scale, 0 no effect, 100 complete control
# [13] = Postemergence, 500 g ai/ha, 0 to 100 scale, 0 no effect, 100 complete control
# [14] = Preemergence, 125 g ai/ha, 0 to 100 scale (0 no effect, 100 complete control)
# [15] = Preemergence, 500 g ai/ha, 0 to 100 scale (0 no effect, 100 complete control)
# [16] = Postemergence, 31 g ai/ha, 0 to 100 scale (0 no effect, 100 complete control)
# [17] = Preemergence, 31 g ai/ha, 0 to 100 scale, 0 is no effect, 100 is complete control
compound,measurement,setting,value
CCc1cc(-c2ccc(C(F)(F)F)cc2)nn1-c1c(OC(=O)C(C)(C)C)cnn(C)c1=O [Compound 18],"Plant response rating, Barnyardgrass",[1]; [8],90
same,"Plant response rating, Barnyardgrass",[1]; [9],100
same,"Plant response rating, Barnyardgrass",[1]; [10],100
same,"Plant response rating, Barnyardgrass",[1]; [11],100
same,"Plant response rating, Corn",corn (Zea mays); [8],80
same,"Plant response rating, Corn",corn (Zea mays); [9],90
same,"Plant response rating, Corn",corn (Zea mays); [10],90
same,"Plant response rating, Corn",corn (Zea mays); [11],90
same,"Plant response rating, Foxtail, Giant",[2]; [8],90
same,"Plant response rating, Foxtail, Giant",[2]; [9],100
same,"Plant response rating, Foxtail, Giant",[2]; [10],100
same,"Plant response rating, Foxtail, Giant",[2]; [11],100
same,"Plant response rating, Crabgrass, Large",[3]; [8],80
same,"Plant response rating, Crabgrass, Large",[3]; [9],100
same,"Plant response rating, Crabgrass, Large",[3]; [10],100
same,"Plant response rating, Crabgrass, Large",[3]; [11],100
same,"Plant response rating, Morningglory",[4]; [8],0
same,"Plant response rating, Morningglory",[4]; [9],0
same,"Plant response rating, Morningglory",[4]; [10],0
same,"Plant response rating, Morningglory",[4]; [11],0
same,"Plant response rating, Pigweed",[5]; [8],0
same,"Plant response rating, Pigweed",[5]; [9],0
same,"Plant response rating, Pigweed",[5]; [10],0
same,"Plant response rating, Pigweed",[5]; [11],0
same,"Plant response rating, Velvetleaf",[6]; [8],0
same,"Plant response rating, Velvetleaf",[6]; [9],0
same,"Plant response rating, Velvetleaf",[6]; [10],0
same,"Plant response rating, Velvetleaf",[6]; [11],0
same,"Plant response rating, Wheat",[7]; [8],70
same,"Plant response rating, Wheat",[7]; [9],80
same,"Plant response rating, Wheat",[7]; [10],90
same,"Plant response rating, Wheat",[7]; [11],100
Cc1nc(-c2ccc(C(F)(F)F)cc2)sc1-c1c(O)cnn(C)c1=O [Compound 24],"Plant response rating, Barnyardgrass",[1]; [12],0
same,"Plant response rating, Barnyardgrass",[1]; [13],10
same,"Plant response rating, Barnyardgrass",[1]; [14],0
same,"Plant response rating, Barnyardgrass",[1]; [15],30
same,"Plant response rating, Corn",corn (Zea mays); [12],0
same,"Plant response rating, Corn",corn (Zea mays); [13],20
same,"Plant response rating, Corn",corn (Zea mays); [14],0
same,"Plant response rating, Corn",corn (Zea mays); [15],0
same,"Plant response rating, Foxtail, Giant",[2]; [12],0
same,"Plant response rating, Foxtail, Giant",[2]; [13],40
same,"Plant response rating, Foxtail, Giant",[2]; [14],0
same,"Plant response rating, Foxtail, Giant",[2]; [15],80
same,"Plant response rating, Crabgrass, Large",[3]; [12],0
same,"Plant response rating, Crabgrass, Large",[3]; [13],10
same,"Plant response rating, Crabgrass, Large",[3]; [14],0
same,"Plant response rating, Crabgrass, Large",[3]; [15],60
same,"Plant response rating, Morningglory",[4]; [12],0
same,"Plant response rating, Morningglory",[4]; [13],0
same,"Plant response rating, Morningglory",[4]; [14],0
same,"Plant response rating, Morningglory",[4]; [15],0
same,"Plant response rating, Pigweed",[5]; [12],0
same,"Plant response rating, Pigweed",[5]; [13],0
same,"Plant response rating, Pigweed",[5]; [14],0
same,"Plant response rating, Pigweed",[5]; [15],0
same,"Plant response rating, Velvetleaf",[6]; [12],0
same,"Plant response rating, Velvetleaf",[6]; [13],0
same,"Plant response rating, Velvetleaf",[6]; [14],0
same,"Plant response rating, Velvetleaf",[6]; [15],0
same,"Plant response rating, Wheat",[7]; [12],0
same,"Plant response rating, Wheat",[7]; [13],20
same,"Plant response rating, Wheat",[7]; [14],0
same,"Plant response rating, Wheat",[7]; [15],0
Cn1ncc(O)c(-c2nn(-c3ccc(C(F)(F)F)cn3)cc2Br)c1=O [Compound 71],"Plant response rating, Barnyardgrass",[1]; [16],10
same,"Plant response rating, Barnyardgrass",[1]; [12],90
same,"Plant response rating, Barnyardgrass",[1]; [17],0
same,"Plant response rating, Barnyardgrass",[1]; [14],40
same,"Plant response rating, Corn",corn (Zea mays); [16],0
same,"Plant response rating, Corn",corn (Zea mays); [12],40
same,"Plant response rating, Corn",corn (Zea mays); [17],0
same,"Plant response rating, Corn",corn (Zea mays); [14],20
same,"Plant response rating, Foxtail, Giant",[2]; [16],30
same,"Plant response rating, Foxtail, Giant",[2]; [12],90
same,"Plant response rating, Foxtail, Giant",[2]; [17],0
same,"Plant response rating, Foxtail, Giant",[2]; [14],100
same,"Plant response rating, Crabgrass, Large",[3]; [16],20
same,"Plant response rating, Crabgrass, Large",[3]; [12],80
same,"Plant response rating, Crabgrass, Large",[3]; [17],10
same,"Plant response rating, Crabgrass, Large",[3]; [14],60
same,"Plant response rating, Morningglory",[4]; [16],0
same,"Plant response rating, Morningglory",[4]; [12],0
same,"Plant response rating, Morningglory",[4]; [17],0
same,"Plant response rating, Morningglory",[4]; [14],0
same,"Plant response rating, Pigweed",[5]; [16],0
same,"Plant response rating, Pigweed",[5]; [12],0
same,"Plant response rating, Pigweed",[5]; [17],0
same,"Plant response rating, Pigweed",[5]; [14],0
same,"Plant response rating, Velvetleaf",[6]; [16],0
same,"Plant response rating, Velvetleaf",[6]; [12],0
same,"Plant response rating, Velvetleaf",[6]; [17],0
same,"Plant response rating, Velvetleaf",[6]; [14],0
same,"Plant response rating, Wheat",[7]; [16],0
same,"Plant response rating, Wheat",[7]; [12],80
same,"Plant response rating, Wheat",[7]; [17],0
same,"Plant response rating, Wheat",[7]; [14],50
